Experimental data as given in PMC7122770, “Potential endocrine disrupting properties of toys for babies and infants” (PLoS ONE, 2020).
Structures can show the parent of a compound that is named as a salt. Where two headings read alike, the source gives them in different places.

Tests used:
[1] = cited from earlier work
[2] = biological target: T1, human estrogen receptor (Estrogen Receptor α) (Homo sapiens, UniProt P03372); test: Analysis of detected pure substances in ER-CALUX; format: cell-based; conditions: for % E2 max: mean of triplicates
T1 sequence (P03372 1-595): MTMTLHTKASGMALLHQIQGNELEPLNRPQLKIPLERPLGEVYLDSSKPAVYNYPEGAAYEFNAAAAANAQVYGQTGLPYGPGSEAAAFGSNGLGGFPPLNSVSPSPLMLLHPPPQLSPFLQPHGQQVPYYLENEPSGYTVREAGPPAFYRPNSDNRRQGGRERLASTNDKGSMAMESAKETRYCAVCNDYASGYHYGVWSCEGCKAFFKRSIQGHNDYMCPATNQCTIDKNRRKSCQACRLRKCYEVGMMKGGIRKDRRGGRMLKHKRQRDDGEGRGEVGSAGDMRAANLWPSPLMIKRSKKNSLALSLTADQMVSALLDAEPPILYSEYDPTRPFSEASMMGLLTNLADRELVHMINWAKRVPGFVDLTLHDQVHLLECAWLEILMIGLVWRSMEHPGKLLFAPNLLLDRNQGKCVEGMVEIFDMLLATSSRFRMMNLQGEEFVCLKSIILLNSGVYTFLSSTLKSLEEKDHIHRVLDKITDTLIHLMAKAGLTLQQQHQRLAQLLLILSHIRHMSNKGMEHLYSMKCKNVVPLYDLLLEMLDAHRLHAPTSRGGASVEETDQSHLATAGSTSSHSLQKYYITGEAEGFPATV

[3] = cited from earlier work; remark: listed apart in the source
[4] = Toxicological reference values (TDI, ADI, reference dose); parameters: species or system human
From the text: Risks were estimated by comparing the daily exposure (DE) to toxicological reference values (TRV) when available.

[5] = test system: U2-OS osteosarcoma cell line; test: Cytotoxic effects / cell viability in the CALUX cells; format: cell-based, human; conditions: two highest concentrations in ER-CALUX
[6] = 2,50E-06 mol/l in bioassay medium
[7] = 5,00E-06 mol/l in bioassay medium
[8] = pure substance in ER-CALUX, read-out: EC50
[9] = 2,50E-04 mol/l in bioassay medium
[10] = 5,00E-04 mol/l in bioassay medium
[11] = 5,00E-05 mol/l in bioassay medium

Question: Which “temporary tolerable daily intake (TDI)” value ([1]; recommended by EFSA, taking into account endocrine effects ref 43) does the source give for `CC(C)(c1ccc(O)cc1)c1ccc(O)cc1` [Bisphenol A (BPA), Bisphenol A] here?
Answer: Its value is 4 μg/kg body weight per day.

Question: And the “% E2 max” value [2, 6]?
Answer: The value was 151%.

Question: And the “% E2 max” value [2, 7]?
Answer: The value was 154%.

Question: And the “% E2 max” value ([2]; 5,00E-07 mol/l in bioassay medium)?
Answer: Its value is 116%.

Question: What about the “% E2 max” value ([2]; 5,00E-08 mol/l in bioassay medium) of the same compound?
Answer: Its value is 11%.

Question: And the “% E2 max” value ([2]; 5,00E-09 mol/l in bioassay medium)?
Answer: Its value is 5%.

Question: What about the “factor less estrogen active than the natural estrogen 17β-estradiol” value ([2]; based on response curves in ER-CALUX (Fig 2)) of the same compound?
Answer: Its value is about 30.000.

Question: With `O=C(c1ccccc1)c1ccccc1` [Benzophenone] as the compound, how does the “tolerable daily intake (TDI)” value ([1]; recommended by the European Food Safety Agency ref 43) read?
Answer: The value was 30 μg/kg body weight per day.

Question: With `C#C[C@]1(O)CC[C@H]2[C@@H]3CCc4cc(O)ccc4[C@H]3CC[C@@]21C` [17α-ethinyl estradiol, reference compound] as the compound, how does the “acceptable daily intake (ADI)” value ([1]; adult person (60 kg), based on working place thresholds ref 40) read?
Answer: The value was 7 ng.

Question: And the “in vitro estrogen activity compared with 17β-estradiol” value [3]?
Answer: Its value is “approximatively the same in vitro estrogen activity as the natural sex hormone 17β-estradiol”.

Question: And the “fold lower ADI than 17β-estradiol” value [4]?
Answer: Its value is “approximately 400 fold”.

Question: For `CCCCCCCC/C=C\CCCCCCCCCCCC(N)=O` [13-Docosenamide (Z)], which “endocrine activity in the in vitro tests used in this study” value ([2]; pure substance) is on record?
Answer: The value was “not endocrine active”.

Question: And the “Estrogen active [yes/no]” value ([2]; pure substance in ER-CALUX)?
Answer: The value was “no”.

Question: And the EC50 [2, 8]?
Answer: The EC50 was over 500 µM.

Question: Which “estrogenic or androgenic activity” value ([3]; based on published data ref 2) does the source give for `CCCCOC(=O)CC(CC(=O)OCCCC)(OC(C)=O)C(=O)OCCCC` [Acetyl tributyl citrate (ATBC), Acetyl tributyl citrate] here?
Answer: The value was “does not seem to show estrogenic or androgenic activity”.

Question: For `CCOC(=O)c1ccccc1C(=O)OCC` [Diethyl phthalate (DEP), Diethyl phthalate], which “% E2 max” value [2, 9] is on record?
Answer: The value was 47%.

Question: And the “% E2 max” value [2, 6]?
Answer: The value was 9%.

Question: What about the “% E2 max” value [2, 10] of the same compound?
Answer: The value was 69%.

Question: What about the “% E2 max” value [2, 11] of the same compound?
Answer: The value was 23%.

Question: What about the “% E2 max” value [2, 7] of the same compound?
Answer: Its value is 10%.

Question: And the “Estrogen active [yes/no]” value ([2]; pure substance in ER-CALUX)?
Answer: The value was “yes”.

Question: And the EC50 [2, 8]?
Answer: The EC50 was 200 µM.

Question: For `CC(C)CCCCCCOC(=O)C1CCCCC1C(=O)OCCCCCCC(C)C` (centres unmarked) [Diisononyl cyclohexane-1,2-dicarboxylate], which “lowest reference value published” value [1] is on record?
Answer: Its value is 0.7 mg/kg bw/day.

Question: And the “Estrogen active [yes/no]” value ([2]; pure substance in ER-CALUX)?
Answer: Its value is “no”.

Question: What about the “Estrogen active [yes/no]” value ([2]; pure substance in ER-CALUX, listed as DINCH) of the same compound?
Answer: The value was “negative”.

Question: What about the EC50 [2, 8] of the same compound?
Answer: The EC50 was over 500 µM.

Question: Which “% E2 max” value [2, 9] does the source give for `CCCCOC(=O)CC(O)(CC(=O)OCCCC)C(=O)OCCCC` [Tributyl citrate (TBC), Tributyl citrate] here?
Answer: Its value is 8%.

Question: And the “% E2 max” value [2, 6]?
Answer: Its value is 4%.

Question: And the “% E2 max” value [2, 10]?
Answer: Its value is 3%.

Question: What about the “% E2 max” value [2, 11] of the same compound?
Answer: The value was 34%.

Question: And the “% E2 max” value [2, 7]?
Answer: The value was 6%.

Question: What about the “Estrogen active [yes/no]” value ([2]; pure substance in ER-CALUX) of the same compound?
Answer: The value was “yes”.

Question: And the “Estrogen active [yes/no]” value ([2]; pure substance in ER-CALUX, listed as TBC)?
Answer: The value was “low, but significant estrogen activity”.

Question: What about the EC50 [2, 8] of the same compound?
Answer: The EC50 was 50 µM.

Question: And the cell viability [5]?
Answer: The cell viability was “decrease in cell viability”.

Question: What does the source list for `CC(C)C(=O)OCC(C)(C)C(OC(=O)C(C)C)C(C)C` (centres unmarked) [2,2,4-Trimethyl-1,3-pentanediol diisobutyrate]?
Answer: EC50 [2]: > 500 µM; Estrogen active [yes/no] ([2]; pure substance in ER-CALUX): no; Estrogen active [yes/no] ([2]; pure substance in ER-CALUX, listed as TXIB): negative
